The results in this text go back to publication PMC12006963, “Application of Deuterium in an M1 Positive Allosteric Modulator Back-Up Program: The Discovery of VU6045422” (ACS Chemical Neuroscience, 2025).

Each structure is given as a SMILES string.

Data set [1] is described as follows: In vivo IV/PO pharmacokinetics, dog. Details: species or system dog (beagle or mongrel). The conditions noted are these: for clearance / Vd / half-life: beagle or mongrel, plasma, 1 mg/kg; for clearance: dose iv/po mg/kg: 1 1/3, 5 1/5, read-out: CLp; for Vd: dose iv/po mg/kg: 1 1/3, 5 1/5, read-out: Vss; for half-life: dose iv/po mg/kg: 1 1/3, 5 1/5, read-out: elimination t1/2 (converted); for F (%) po: dose iv/po mg/kg: 1 1/3, 5 1/5.

Data set [2] in a line: Plasma protein binding, equilibrium dialysis (dog). It counts as in vitro ADME. The conditions noted are these: pH 7.4, read-out: fu,plasma. Here is the method:
page 5: Drug Metabolism Methods: In vitro Plasma protein binding and Brain homogenate binding: Determination of fraction unbound (f u) in plasma was conducted in vitro via equilibrium dialysis using HTDialysis (HTD) membrane plates. The top half of the plate was filled with 100 uL of Dubelco’s Phosphate Buffered Saline, pH 7.4 (DPBS). Compounds were diluted into plasma from each species (5 µM final concentration), which was aliquoted in triplicate to the ‘bottom half’ of the prepared HTD plate wells. The HTD plate was sealed and incubated for 6 hours at 37 °C. Following incubation, each well (both top and bottom halves) were transferred (20 µL) to the corresponding wells of a 96- shallow-well (V-bottom) plate. The daughter plates were then matrix-matched (DPBS side wells received equal volume of plasma, and plasma side wells received equal volume of DPBS), and extraction solution (120 µL; acetonitrile containing 50 nM carbamazepine as IS) was added to all wells of both daughter plates to precipitate protein and extract test article. The plates were then sealed and centrifuged (3500 rcf) for 10 minutes at ambient temperature. Supernatant (60 µL) from each well of the daughter plates was then transferred to the corresponding wells of new daughter plates (96-shallow-well, V bottom) containing water (Milli-Q, 60 µL/well), and the plates were sealed in preparation for LC-MS/MS analysis (see LC-MS/MS analysis method below). The unbound fraction (f u) was calculated following the equation below, and mean values for each species were calculated from 3 replicates. […] Fraction unbound for both plasma and brain samples was determined using Equation 4. f = Concbuffer u Concplasma Equation 4 Determination of fraction unbound in plasma. […]

A further data set in a line: Brain homogenate binding. The conditions noted are these: pH 7.4; rat brain homogenate; read-out: fu,brain. Type of data set: in vitro ADME. Here is the method: Plasma protein binding and Brain homogenate binding: Determination of fraction unbound (f u) in plasma was conducted in vitro via equilibrium dialysis using HTDialysis (HTD) membrane plates. The top half of the plate was filled with 100 uL of Dubelco’s Phosphate Buffered Saline, pH 7.4 (DPBS). Compounds were diluted into plasma from each species (5 µM final concentration), which was aliquoted in triplicate to the ‘bottom half’ of the prepared HTD plate wells. The HTD plate was sealed and incubated for 6 hours at 37 °C. Following incubation, each well (both top and bottom halves) were transferred (20 µL) to the corresponding wells of a 96-shallow-well (V-bottom) plate. The daughter plates were then matrix-matched (DPBS side wells received equal volume of plasma, and plasma side wells received equal volume of DPBS), and extraction solution (120 µL; acetonitrile containing 50 nM carbamazepine as IS) was added to all wells of both daughter plates to precipitate protein and extract test article. The plates were then sealed and centrifuged (3500 rcf) for 10 minutes at ambient temperature. […]
The unbound fraction (f u) was calculated following the equation below, and mean values for each species were calculated from 3 replicates.
A similar approach was used to determine the degree of brain homogenate binding, which employed the same methodology and procedure with the following modifications: 1) a final compound concentration of 1 μM was used, 2) naïve rat brains were homogenized in DPBS (1:3 composition of brain: DPBS, w/w) using a Mini-Bead Beater™ machine in order to obtain brain homogenate, which was then treated in the same manner as the plasma samples in the previously described plasma protein binding assay. Fraction unbound for both plasma and brain samples was determined using Equation 4. […]
The diluted fraction unbound (fu2) in brain was calculated in the same manner by using brain homogenate rather than plasma. Undiluted fraction unbound for the brain was calculated using […]

For a further data set, the target named is CYP 2D6 (Homo sapiens, UniProt P10635). Briefly: CYP inhibition 2D6. Type of data set: in vitro ADME. The text has this: (§1) Table 1 Pharmacology and In Vitro DMPK Profiles of M1 PAMs 1, 3, and 5 | column: 1; 3; 5
Sequence of CYP 2D6 (P10635 whole entry): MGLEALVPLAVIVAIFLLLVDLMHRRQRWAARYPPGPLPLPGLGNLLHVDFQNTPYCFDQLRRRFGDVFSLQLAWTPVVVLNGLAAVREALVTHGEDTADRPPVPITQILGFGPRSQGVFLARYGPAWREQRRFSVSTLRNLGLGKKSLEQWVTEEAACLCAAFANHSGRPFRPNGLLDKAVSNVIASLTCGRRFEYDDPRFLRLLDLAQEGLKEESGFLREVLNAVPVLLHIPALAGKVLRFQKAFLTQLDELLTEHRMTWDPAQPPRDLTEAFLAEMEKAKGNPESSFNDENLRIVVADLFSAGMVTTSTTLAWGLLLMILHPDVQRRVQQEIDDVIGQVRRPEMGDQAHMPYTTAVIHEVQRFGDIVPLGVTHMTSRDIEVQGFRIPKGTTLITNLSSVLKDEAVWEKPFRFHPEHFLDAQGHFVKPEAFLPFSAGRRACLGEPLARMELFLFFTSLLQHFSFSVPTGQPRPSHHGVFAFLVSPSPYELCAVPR
The nature of data set [3]: In vivo IV/PO pharmacokinetics, NHP. The conditions noted are these: NHP (cyno), dose iv/po mg/kg: 1 1/3, 5 1/5; for clearance / Vd / half-life: cynomolgus monkey, plasma, 1 mg/kg; for clearance: read-out: CLp; for Vd: read-out: Vss; for half-life: read-out: elimination t1/2 (converted).
A short description of data set [4]: In vivo IV/PO pharmacokinetics, rat. The conditions noted are these: rat (SD), dose iv/po mg/kg: 1 1/3, 3 1/10, 5 1/10; for clearance / Vd / half-life: Sprague-Dawley, plasma, 1 mg/kg; for clearance: read-out: CLp; for Vd: read-out: Vss; for half-life: read-out: elimination t1/2 (converted).
Another data set concerns the target CYP 2C9 (Homo sapiens, UniProt P11712). Briefly: CYP inhibition 2C9. Type of data set: in vitro ADME.
From the text: as §1

The subject of the next data set is rM2-5. Briefly: Muscarinic selectivity, rat M2-5. Type of data set: cell-based.

Sequence of CYP 2C9 (P11712 whole entry): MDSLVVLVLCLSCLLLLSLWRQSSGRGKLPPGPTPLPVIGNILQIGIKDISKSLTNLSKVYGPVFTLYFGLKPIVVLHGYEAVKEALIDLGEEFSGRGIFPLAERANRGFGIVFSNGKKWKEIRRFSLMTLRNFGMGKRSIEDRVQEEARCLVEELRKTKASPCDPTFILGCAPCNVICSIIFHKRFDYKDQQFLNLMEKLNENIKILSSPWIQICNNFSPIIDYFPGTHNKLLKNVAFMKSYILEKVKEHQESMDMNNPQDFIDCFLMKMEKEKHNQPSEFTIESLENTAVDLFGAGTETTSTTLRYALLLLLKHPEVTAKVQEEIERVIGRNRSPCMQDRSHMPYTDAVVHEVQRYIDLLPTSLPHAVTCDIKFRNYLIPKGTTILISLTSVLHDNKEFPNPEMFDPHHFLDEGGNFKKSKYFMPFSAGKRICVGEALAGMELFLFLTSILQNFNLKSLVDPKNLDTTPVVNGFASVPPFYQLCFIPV

With `Cn1cc2c(-c3cc(F)c(CN4Cc5ncccc5C4=O)c(F)c3)cccc2n1` [compound 1], in data set [1], the clearance turned out to be 4 mL/min/kg, the Vd turned out to be 2.1 L/kg, the half-life was 7.5 h and the “F (%) po” value is reported as 100%. In data set [2], the fraction unbound at 6 h, 5 µM came out at 0.076. The fraction unbound at 6 h, 1 µM in “Brain homogenate binding” turned out to be 0.04. Also, the IC50 (usually the concentration that gives 50% inhibition) on CYP 2D6 is above 30 µM. Also, in data set [3], the “F (%) po” value came out at 59%, the clearance is 3.3 mL/min/kg, the Vd worked out at 0.9 L/kg and the half-life was 4.3 h. In data set [4], the clearance was determined as 3 mL/min/kg, the Vd came to 0.67 L/kg, the half-life was 3 h and the “F (%) po” value turned out to be 93%. At CYP 2C9, the IC50 is above 30 µM.

With `[2H]C1([2H])c2ncccc2C(=O)N1Cc1c(F)cc(-c2cccc3nn(C)cc23)cc1F` [compound 3], the fraction unbound at 6 h, 5 µM in data set [2] worked out at 0.082. In addition, in the data set “Brain homogenate binding”, the fraction unbound at 6 h, 1 µM was determined as 0.031. At CYP 2D6, this compound came in with an IC50 above 30 µM. For the same compound, in data set [4], the clearance was found to be 5.5 mL/min/kg, the Vd worked out at 1.4 L/kg, the half-life was 3 h and the “F (%) po” value worked out at 100%. Further, at CYP 2C9, half-maximal inhibition (IC50) was put at 17.4 µM. For the same compound, in the data set on rM2-5, the EC50 (commonly the concentration at which the effect is half-maximal) is above 30 µM.

Consider `[2H]C1([2H])c2ncccc2C(=O)N1Cc1c(F)cc(-c2cccc3nn(C([2H])([2H])[2H])cc23)cc1F` [compound 5], for which the results for the clearance in data set [1], in data set [3] and in data set [4] were 2.6 mL/min/kg, 4 mL/min/kg and 4.8 mL/min/kg, respectively. Moreover, the Vd in data set [1] was 2 L/kg; in data set [3], 1.1 L/kg; in data set [4] it was 1.1 L/kg. In addition, the half-life is 10 h in data set [1], 4.6 h in data set [3] and 3.6 h in data set [4]. Also, the “F (%) po” value in data set [1] was found to be 85%; in data set [3], 64%; in data set [4], 100%. The fraction unbound at 6 h, 5 µM in data set [2] was 0.119. For the same compound, the fraction unbound at 6 h, 1 µM in the data set “Brain homogenate binding” is 0.036. The IC50 against CYP 2D6 was above 30 µM; against CYP 2C9, 8.8 µM. In the data set with rM2-5, this compound had an EC50 above 30 µM.
